Entries after “also recorded” stand apart in the source; their conditions may differ.
Experiments:
[1] = system: isolated perfused guinea pig heart; test: Ischemia-reperfusion-induced myocardial stunning in isolated perfused guinea pig heart (Langendorff); conditions: for myocardial contractile force during ischemia-reperfusion / tolerance of ischemia versus buffer-treated hearts: SS-02 100 nM or SS-31 1 nM perfused 30 min; for myocardial contractile force during ischemia-reperfusion: 30-min global ischemia, then reperfusion (FIG. 2)
Procedure: Guinea pig hearts were rapidly isolated, and the aorta was cannulated in situ and perfused in a retrograde fashion with an oxygenated Krebs-Henseleit solution (pH 7.4) at 34° C. The heart was then excised, mounted on a modified Langendorff perfusion apparatus, and perfused at constant pressure (40 cm H20). Contractile force was measured with a small hook inserted into the apex of the left ventricle and the silk ligature tightly connected to a force-displacement transducer. Coronary flow was measured by timed collection of pulmonary artery effluent.
Hearts were perfused with buffer, 2′,6′-Dmt-D-Arg-PheLys-NH2 (SS-02) (100 nM) or D-Arg-Dmt-Lys-Phe-NH2 (SS-31) (1 nM) for 30 min and then subjected to 30 min of global ischemia Reperfusion was carried out with the same solution used prior to ischemia.

isolated mitochondria = test: Mitochondrial permeability transition (MPT) induced by Ca2+ in isolated mitochondria; conditions: pretreatment of isolated mitochondria with SS-31 10 μM (FIG. 1A)
Procedure: (§1) FIGS. 1A-1C depict that D-Arg-Dmt-Lys-Phe-NH2 (SS-31; MTP-131) inhibits mitochondrial swelling and cytochrome c release. […] Gray line, buffer; red line, SS-31. […] Swelling was measured by light scattering measured at 570 nm. FIG. 1 C depicts the comparison of SS-02 and SS-31 with cyclosporine (CsA) in inhibiting mitochondrial swelling and cytochrome c release induced by Ca2+. The amount of cytochrome c released was expressed as percent of total cytochrome c in mitochondria. Data are presented as mean±s.e., n=3.
(§2) MPT pore opening results in mitochondrial swelling. We examined the effects of (SS-31) on mitochondrial swelling, which was measured using light scattering monitored at 570 nm.

mitochondria [2] = test: Mitochondrial swelling induced by Ca2+, light scattering at 570 nm; conditions: pretreatment with SS-31 50 μM, light scattering at 570 nm (FIG. 1B)
Procedure: as §1, §2

mitochondria [3] = test: Cytochrome c release from mitochondria induced by Ca2+; conditions: FIG. 1C
Procedure: as §1, §2

[4] = 30 min global ischemia, then reperfusion

Molecule | myocardial contractile force during ischemia-reperfusion [1] | tolerance of ischemia versus buffer-treated hearts [1, 4] | onset of MPT induced by Ca2+ (isolated mitochondria) | mitochondrial swelling induced by Ca2+ (mitochondria [2]) | inhibition of cardiac stunning ([1]; SS-31 1 nM, 30 min global ischemia, then reperfusion) | heart rate ([1]; SS-31 1 nM, ischemia-reperfusion) | coronary flow during reperfusion ([1]; SS-31 1 nM, timed collection of pulmonary artery effluent) | cytochrome c release induced by Ca2+ (mitochondria [3])
2′,6′-Dmt-D-Arg-PheLys-NH2 [SS-02] | protects myocardial contractile force | tolerated ischemia much better than buffer-treated hearts |  |  |  |  |  | 
Cc1cc(O)cc(C)c1C[C@H](CC(=O)[C@H](N)CCCNC(=N)N)C(=O)N[C@@H](CCCCN)C(=O)N[C@@H](Cc1ccccc1)C(N)=O [SS-31, D-Arg-Dmt-Lys-Phe-NH2] | protects myocardial contractile force | tolerated ischemia much better than buffer-treated hearts | has the same ability to protect against MPT; also recorded: prevents onset of MPT | has the same ability to protect against; also recorded: inhibited mitochondrial swelling | complete inhibition of cardiac stunning | no decrease in heart rate | well-sustained throughout reperfusion | has the same ability to protect against

— patent US20230227499A1, “PRODRUGS OF MITOCHONDRIA-TARGETING OLIGOPEPTIDES” (Stealth Biotherapeutics Inc., priority 2020, published 2023)
